Laboratory results published in ChEMBL document CHEMBL1127161, “Synthesis of a peptidyl 2,2-difluoro-4-phenylbutyl ketone and its evaluation as an inhibitor of interleukin-1 converting enzyme” (Bioorg Med Chem Lett, 1993).
pKi: −log10 of the molar value.

Target: T1, Caspase-1 (Homo sapiens, UniProt P29466)
T1 sequence (P29466 whole entry): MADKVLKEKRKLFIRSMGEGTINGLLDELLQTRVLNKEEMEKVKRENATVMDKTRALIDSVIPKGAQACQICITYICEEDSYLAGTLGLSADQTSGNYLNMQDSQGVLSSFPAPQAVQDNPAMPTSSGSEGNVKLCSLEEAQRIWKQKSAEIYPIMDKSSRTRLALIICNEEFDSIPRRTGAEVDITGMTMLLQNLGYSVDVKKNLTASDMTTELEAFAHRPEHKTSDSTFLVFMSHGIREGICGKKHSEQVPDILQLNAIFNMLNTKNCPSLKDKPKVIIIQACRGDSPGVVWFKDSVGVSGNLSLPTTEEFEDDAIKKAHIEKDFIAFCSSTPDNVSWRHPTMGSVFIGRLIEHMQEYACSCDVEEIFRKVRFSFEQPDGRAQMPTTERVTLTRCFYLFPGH
Experiment: The compound was tested for its inhibitory activity against IL-1 beta converting enzyme

| SMILES | pKi |
| --- | --- |
| CC(C)[C@H](NC(=O)CCCCc1ccccc1)C(=O)N[C@@H](C)C(=O)NC(CC(=O)O)C(=O)C(F)(F)CCCc1ccccc1 (some centres not stated) | 4.38 |
| CC(C)[C@H](NC(=O)CCc1ccccc1)C(=O)N[C@@H](C)C(=O)NC(CC(=O)O)C(=O)C(F)(F)CCCc1ccccc1 (some centres not stated) | 5.22 |
